Measured values taken from patent US20180214411A1, “COMPOSITION COMPRISING SATIETY-INDUCING PARTICLES” (PERORA GMBH, priority 2015, published 2018).

Assay: tryptophan release / dissolution in fasted-state simulated gastric fluid (FaSSGF)
Assay type: physicochemical
Conditions: 30 mg powder in 22 mL FaSSGF, 37° C., agitated
Method: 30 mg of tryptophan powder were suspended in 22 mL FaSSGF at 37° C. and agitated (shaker ST5 from CAT, Germany). Aliquots were removed at time intervals of 5 min, and tryptophan concentration was quantified using absorption measurement at a wavelength of 280 nm in a NanoDrop® 2000 device (Thermo Scientific, USA).

N[C@@H](Cc1c[nH]c2ccccc12)C(=O)O [tryptophan powder, L-Tryptophan]
time after which tryptophan was quantitatively dissolved: 10 min
